We go through two compounds from article PMC5329948, “Caspase vinyl sulfone small molecule inhibitors prevent axonal degeneration in human neurons and reverse cognitive impairment in Caspase-6-overexpressing mice” (Molecular Neurodegeneration, 2017).

In data set [1] the target is T1, recombinant Caspase-2 (Homo sapiens, UniProt P42575).
T1 construct: purchased BioVision
The experiment in a line: Caspase Inhibitor Drug Screening Kit (BioVision), VDVAD-AFC substrate. In kind it is biochemical. Particulars: not active site titrated. As to the method:
(§1) The half-maximal inhibitory concentrations (IC50) for NWL inhibitors (Patent publication # WO/2009/140765, WO/2010/133000, and WO/2012/140500) was determined by incubating 0 to 20 μM NWL-117 and NWL-154 with 20 nM of active site-titrated Casp6 in SB at room temperature for 5 minutes. Then, 10 μM Ac-VEID-AFC was added and fluorescence measured for 20 min at 37 °C as described above. New World Laboratories performed the IC50 determination for NWL inhibitors dissolved in dimethyl sulfoxide (DMSO) against recombinant Casp1-10 using the Caspase Inhibitor Drug Screening Kits (BioVision, San Francisco, CA) following the manufacturer’s instructions and the preferred substrates for the caspases (Caspase-1: WAD-AFC, Caspase-2: VDVAD-AFC, Caspase-3: DEVD-AFC, Caspase-4: LEVD-AFC, Caspase-5: WEHD-AFC, Casp6:VEID-AFC, Caspase-7: DEVD-AFC, Caspase-8: IETD-AFC, Caspase-9: LEHD-AFC, Caspase-10: AEVD-AFC). In transfected HCT116 cells, 0 to 100 μM NWL inhibitors were added in the culture media and left on the cells for 2 h. Cells were washed once with 1 mL ice-cold PBS, incubated on ice for 5 min with 200 μL cell lysis buffer (CLB) (50 mM HEPES, 0.1% CHAPS, 0.1 mM EDTA), and gently scraped off. Protein concentrations were determined by Bradford assay (BioRad, Mississauga, ON, CA) by measuring the absorbance at 595 nm using the BioTek Synergy H4 plate reader. […]

Data set [2] concerns the target T2, recombinant Caspase-1 (Homo sapiens, UniProt P29466).
T2 construct: purchased BioVision
As to the kind of experiment: Caspase Inhibitor Drug Screening Kit (BioVision), WAD-AFC substrate. In kind it is biochemical. As to conditions: not active site titrated. Here is the method: as §1

Data set [3] has as its system HCT116 cells. The experiment in a line: Cellular toxicity in HCT116 cells (phase contrast, MTT, LDH, sub-G1). Particulars: for cell morphology (phase contrast) / lactate dehydrogenase (LDH) release / sub-G1 levels of DNA: HCT116, 100 μM, 24 h; for mitochondrial reductive potential (MTT): HCT116, 20, 50 or 100 μM, 24 or 48 h. In kind it is cell-based, human. As to the method:
Immunofluorescence on human neuron cultures: Primary human neurons were pre-treated 2 h and serum-deprived in the presence of 100 μM NWL-117, 100 μM NWL-154, or 5 μM Z-VEID-fmk (Biomol, Plymouth meeting, PA, USA) for 24 h. Following treatment, human neurons were washed once with warm PBS, fixed for 20 min at room temperature with 4% paraformaldehyde (Sigma, Oakville, ON, CA)/4% sucrose (BioRad, Mississauga, ON, CA) for TubΔCasp6 or 2% formaldehyde (Thermo Fisher Scientific, Waltham, MA, USA)/0.2% glutaraldehyde (Sigma, Oakville, ON, CA) for pBudEGFP or pBudEGFP/APP^WT-transfected neurons, incubated in permeabilization buffer (0.1% Triton X-100, 0.1 sodium citrate) for 1 min on ice, washed with PBS, blocked for 20 min at room temperature with 10% goat serum (Sigma, Oakville, ON, CA), and incubated with primary antibodies diluted in 10% goat serum in PBS overnight at 4 °C in a humid chamber. The glass coverslips were washed with PBS, and incubated with goat anti-rabbit secondary antibody coupled to Alexa 488 (Molecular Probes, Eugene, OR, USA) or Cy3 (GE Healthcare Life Sciences, Baie D’Urfe, QC, CA) and Hoechst 33342 (ImmunoChemistry, Bloomington, MN, USA) at 1 μg/mL for 2 h at room temperature. The coverslips were washed with PBS and rinsed in Milli-Q water before mounting in fluoromount (Dako, Burlington, ON, CA). Images were acquired by fluorescence microscopy and quantified using the ImageJ software (NIH, Bethesda, MD, USA) for TubΔCasp6 and manually counted for transfected EGFP(+)-neurons. Time lapse-imaging by live fluorescence microscopy: Primary human neurons were transfected with gold beads coated with pBudEGFP or pBudEGFP/APP^WT using a Helios Gene gun (BioRad, Mississauga, ON, CA). Briefly, cells were pre-treated with 100 μM NWL inhibitors or 5 μM Z-VEID-fmk for 2 h. The media was removed and the neurons were shot at 100 psi. The media was quickly replaced with the inhibitors present. The plasmid was expressed for 16 h before setting up the fluorescence microscope (Nikon Eclipse Ti) to acquire 20 images per condition every hour for 72 h at 37 °C with 5% CO2. The images were analyzed by counting the total number of neurons (50–100 neurons per condition per independent experiment), and the number of beaded, swollen soma, and healthy neurons. In addition, the time at which cells beaded was noted. Phase contrast microscopy: HCT116 cells, plated at a density of 1×10^5 cells/well and human neurons, plated at a density of 6×10^6 cells/well on poly-L-lysine were treated with PBS, 100 μM NWL-117, 100 μM NWL-154, or 2 μM staurosporine (Biomol, Plymouth meeting, PA, USA) for 24 h. Images were acquired with the Nikon Eclipse Ti microscope and the NIS-Elements (Version 3.10) software.
MTT assay: HCT116 cells or primary human neurons were seeded in 96-well plates at a density of 1x10^4 and 1x10^5 cells per well, respectively. The next day, cells and neurons were treated with vehicle (PBS), or 20, 50, or 100 μM of NWL-117, NWL-154, or 2 μM staurosporine for 24 or 48 h. The media was replaced with […] MTT (3-(4,5-dimethylthiazol-2-yl)-2,5-diphenyltetrazolium bromide) (Sigma-Aldrich, Oakville, ON, CA) and the cells were incubated for 4 h at 37 °C in 5% CO2. The media was removed before dissolving the formazan crystals in 100 μL DMSO while shaking for 30 min. Once dissolved, the absorbance of each sample was measured at 560 nm and 670 nm using the Synergy H4 plate reader from BioTek (Winooski, VT, USA). LDH Assay: HCT116 cells were seeded in a 6-well plate at a density of 1×10^5 cells/well and treated the following day with 100 μM NWL-117 or −154 or equal volumes of vehicle (PBS) for 24 h. As a positive control, some cells were lysed for 2 h in 0.9% Triton X-100 (BioShop Canada Inc, Burlington, Ontario, CA). Media was collected and stored at −20 °C or assayed right away using the Cytotox 96 kit (Promega, Madison, WI, USA) following the manufacturer’s protocol. […]

T2 sequence (P29466 120-404): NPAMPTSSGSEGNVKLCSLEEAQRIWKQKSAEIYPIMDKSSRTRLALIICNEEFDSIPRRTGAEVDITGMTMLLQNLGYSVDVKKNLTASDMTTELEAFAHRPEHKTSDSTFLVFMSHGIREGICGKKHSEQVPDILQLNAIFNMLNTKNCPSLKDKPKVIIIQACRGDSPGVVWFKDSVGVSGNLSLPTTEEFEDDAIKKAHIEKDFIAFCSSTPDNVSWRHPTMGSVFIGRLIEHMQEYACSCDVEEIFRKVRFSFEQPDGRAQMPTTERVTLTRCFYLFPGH
T1 sequence (P42575 whole entry): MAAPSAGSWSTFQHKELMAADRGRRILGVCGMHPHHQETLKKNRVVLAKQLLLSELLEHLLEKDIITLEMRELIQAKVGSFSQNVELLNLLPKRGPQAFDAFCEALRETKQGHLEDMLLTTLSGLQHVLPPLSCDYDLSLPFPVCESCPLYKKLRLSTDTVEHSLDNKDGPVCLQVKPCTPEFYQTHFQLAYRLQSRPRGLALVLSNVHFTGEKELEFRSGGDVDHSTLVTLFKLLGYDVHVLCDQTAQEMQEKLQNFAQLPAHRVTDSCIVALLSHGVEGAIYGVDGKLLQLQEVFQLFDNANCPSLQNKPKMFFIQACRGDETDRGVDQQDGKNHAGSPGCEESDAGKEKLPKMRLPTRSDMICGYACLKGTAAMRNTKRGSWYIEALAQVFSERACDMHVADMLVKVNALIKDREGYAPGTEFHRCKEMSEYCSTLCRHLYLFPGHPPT

A word on the IC50: it is the midpoint of a concentration-inhibition curve. Consider `CCC(C)[C@H](NC(=O)[C@H](CCC(=O)O)NC(=O)[C@@H](NC(=O)OCc1ccccc1)C(C)C)C(=O)N[C@H](/C=C/S(C)(=O)=O)CC(=O)O` (stereo partly drawn) [NWL-117], for which the IC50 in data set [1] was more than 100 µM. The concentration for half-maximal inhibition (IC50) in data set [2] was found to be 2.7 µM. In addition, in data set [3], the “cell morphology (phase contrast)” value was “morphologically normal”, the “lactate dehydrogenase (LDH) release” value was “did not release lactase dehydrogenase”, the “sub-G1 levels of DNA” value is reported as “nor did the cells show increased sub-G1 levels” and the “mitochondrial reductive potential (MTT)” value is given as “comparable to vehicle-treated cells”.

In the case of `CCC(C)[C@H](NC(=O)[C@H](CCC(=O)O)NC(=O)[C@@H](NC(=O)OCc1ccccc1)C(C)C)C(=O)N[C@H](/C=C(\Cl)S(C)(=O)=O)CC(=O)O` (stereo partly drawn) [NWL-154], the IC50 in data set [1] was more than 100 µM. Moreover, the IC50 in data set [2] came to 3.85 µM. Besides, in data set [3], the “cell morphology (phase contrast)” value is “morphologically normal”, the “lactate dehydrogenase (LDH) release” value is listed as “did not release lactase dehydrogenase”, the “sub-G1 levels of DNA” value is “nor did the cells show increased sub-G1 levels” and the “mitochondrial reductive potential (MTT)” value is reported as “comparable to vehicle-treated cells”.
